Laboratory results: the supplement of paper PMC10307832

How the values were obtained:
Assay in all cases: relative viability (nuclei count vs DMSO), 5 days (fraction); higher = more cells survive
VX-11e + Pemetrexed = compound: CC1=CN=C(N=C1C2=CNC(=C2)C(=O)N[C@H](CO)C3=CC(=CC=C3)Cl)NC4=C(C=C(C=C4)F)Cl [VX-11e] + Nc1nc2[nH]cc(CCc3ccc(C(=O)N[C@@H](CCC(=O)O)C(=O)O)cc3)c2c(=O)[nH]1 [Pemetrexed] (partner 0.2 µM)
How it was run: (§1)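 Lung cancer cell lines, seeded in 1536-well plates, were treated the following day by pin tool with a single drug or with five library-drug doses (not always all listed) in √10 steps on top of a fixed anchor-drug dose. Cells were fixed and nuclei stained in one step after 5 days, and nuclei were counted. Relative viability is the nuclei count for treated wells divided by that for vehicle wells, reported as medians of duplicate plates.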

VX-11e + Vorinostat = compound: CC1=CN=C(N=C1C2=CNC(=C2)C(=O)N[C@H](CO)C3=CC(=CC=C3)Cl)NC4=C(C=C(C=C4)F)Cl [VX-11e] + O=C(CCCCCCC(=O)Nc1ccccc1)NO [Vorinostat] (partner 1 µM)
How it was run: as §1

VX-11e + Navitoclax = compound: CC1=CN=C(N=C1C2=CNC(=C2)C(=O)N[C@H](CO)C3=CC(=CC=C3)Cl)NC4=C(C=C(C=C4)F)Cl [VX-11e] + CC1(C)CCC(c2ccc(Cl)cc2)=C(CN2CCN(c3ccc(C(=O)NS(=O)(=O)c4ccc(N[C@H](CCN5CCOCC5)CSc5ccccc5)c(S(=O)(=O)C(F)(F)F)c4)cc3)CC2)C1 [Navitoclax] (partner 0.5 µM)
How it was run: as §1

VX-11e + Linsitinib = compound: CC1=CN=C(N=C1C2=CNC(=C2)C(=O)N[C@H](CO)C3=CC(=CC=C3)Cl)NC4=C(C=C(C=C4)F)Cl [VX-11e] + C[C@]1(O)C[C@@H](c2nc(-c3ccc4ccc(-c5ccccc5)nc4c3)c3c(N)nccn32)C1 [Linsitinib] (partner 1 µM)
How it was run: as §1

Cell Line | relative viability (VX-11e + Pemetrexed; first compound 0.04 µM) | relative viability (VX-11e + Pemetrexed; first compound 0.1265 µM) | relative viability (VX-11e + Pemetrexed; first compound 0.4 µM) | relative viability (VX-11e + Pemetrexed; first compound 1.265 µM) | relative viability (VX-11e + Pemetrexed; first compound 4 µM) | relative viability (VX-11e + Vorinostat; first compound 0.04 µM) | relative viability (VX-11e + Vorinostat; first compound 0.1265 µM) | relative viability (VX-11e + Vorinostat; first compound 0.4 µM) | relative viability (VX-11e + Vorinostat; first compound 1.265 µM) | relative viability (VX-11e + Vorinostat; first compound 4 µM) | relative viability (VX-11e + Navitoclax; first compound 0.04 µM) | relative viability (VX-11e + Navitoclax; first compound 0.1265 µM) | relative viability (VX-11e + Navitoclax; first compound 0.4 µM) | relative viability (VX-11e + Navitoclax; first compound 1.265 µM) | relative viability (VX-11e + Navitoclax; first compound 4 µM) | relative viability (VX-11e + Linsitinib; first compound 0.04 µM) | relative viability (VX-11e + Linsitinib; first compound 0.1265 µM) | relative viability (VX-11e + Linsitinib; first compound 0.4 µM) | relative viability (VX-11e + Linsitinib; first compound 1.265 µM) | relative viability (VX-11e + Linsitinib; first compound 4 µM)
201T | 0.347 | 0.344 | 0.317 | 0.249 | 0.31 | 0.975 | 0.988 | 0.885 | 0.65 | 0.855 | 1.23 | 1.16 | 1.2 | 1.17 | 1.08 | 1.01 | 1.02 | 1 | 0.867 | 0.966
A-427 | 1.02 | 0.983 | 1.1 | 0.966 | 0.606 | 0.868 | 0.928 | 1.01 | 0.89 | 0.504 | 0.999 | 0.88 | 0.796 | 0.585 | 0.268 | 1.14 | 1.08 | 1.01 | 0.888 | 0.466
ABC-1 | – | – | – | – | – | 0.934 | – | 1.22 | 0.986 | 1.15 | – | – | – | – | – | 0.814 | 0.792 | 0.597 | 0.531 | 0.538
BEN | 0.491 | 0.69 | 0.875 | 0.582 | 0.629 | 0.572 | 0.564 | 0.55 | 0.525 | 0.504 | 0.0581 | 0.0703 | 0.0708 | 0.061 | 0.0537 | 1.04 | 0.701 | 0.923 | 0.54 | 0.783
CAL-12T | 1.28 | 1.36 | 1.19 | 1.02 | 0.438 | 0.634 | 0.724 | 0.649 | 0.84 | 0.285 | 1.14 | 1.3 | 1.09 | 1.2 | 0.422 | 0.873 | 0.816 | 0.765 | 0.465 | 0.282
COR-L23 | 0.236 | 0.196 | 0.213 | 0.217 | 0.179 | 0.31 | 0.436 | 0.592 | 0.41 | 0.262 | 1.25 | 1.13 | 0.924 | 0.681 | 0.305 | 1.04 | 0.905 | 0.816 | 0.508 | 0.248
COR-L 105 | 1.11 | 0.905 | 0.921 | 0.93 | 0.527 | 0.756 | 0.857 | 0.731 | 0.741 | 0.418 | 0.591 | 0.759 | 0.55 | 0.692 | 0.284 | 1.04 | 0.946 | 0.568 | 0.571 | 0.267
Calu-6 | – | – | – | – | – | – | – | – | – | – | 0.994 | 0.786 | 0.737 | 0.219 | 0.109 | 1.08 | 0.926 | 0.935 | 0.179 | 0.115
ChaGo-K-1 | 0.268 | 0.261 | 0.248 | 0.25 | 0.234 | 0.754 | 0.699 | 0.717 | 0.656 | 0.636 | 0.616 | – | 1.07 | 0.781 | 0.787 | – | – | – | – | –
EBC-1 | – | – | – | – | – | – | – | – | – | – | 0.362 | 0.474 | 0.325 | 0.271 | 0.168 | 0.954 | 0.872 | 0.494 | 0.371 | 0.19
EKVX | 0.314 | 0.444 | 0.33 | 0.383 | 0.225 | 0.751 | 0.687 | 0.718 | 0.728 | 0.382 | 0.847 | 0.935 | 0.926 | 0.831 | 0.601 | 1.01 | 0.971 | 1.05 | 0.87 | 0.559
EMC-BAC-2 | 0.473 | 0.423 | 0.631 | 0.511 | 0.549 | 0.404 | 0.45 | 1.07 | 0.511 | 0.315 | 1.22 | 1.11 | 0.994 | 0.927 | 0.833 | 0.831 | 0.74 | 0.743 | 0.712 | 0.602
EPLC-272H | 0.334 | 0.39 | 0.408 | 0.305 | 0.253 | 0.311 | 0.381 | 0.477 | 0.23 | 0.275 | 1.09 | 1.02 | 1.01 | 0.82 | 0.668 | 0.923 | 1.04 | 0.927 | 0.934 | 0.562
H3255 | 0.478 | 0.565 | 0.523 | 0.513 | 0.47 | 0.828 | 0.765 | 0.776 | 0.79 | 0.708 | 0.526 | 0.451 | 0.657 | 0.614 | 0.496 | 1.01 | 0.815 | 0.971 | 0.956 | 0.879
HARA | 0.253 | 0.236 | 0.26 | 0.186 | 0.131 | 0.618 | 0.455 | 0.535 | 0.392 | 0.257 | 1.16 | 1.1 | 1.13 | 1.13 | 0.968 | 1.01 | 0.9 | 1.02 | 1.04 | 0.417
HCC-15 | 0.227 | 0.232 | 0.22 | 0.197 | 0.15 | 0.96 | 0.752 | – | 0.534 | 0.26 | 0.711 | 0.649 | 0.53 | 0.317 | 0.196 | 0.868 | 0.815 | 0.746 | 0.497 | 0.217
HCC-44 | 0.766 | 0.614 | 0.63 | 0.656 | 0.793 | 1.15 | 1.15 | 1.12 | 1.03 | 0.831 | 0.92 | 0.883 | 1.22 | 1 | 0.732 | 0.697 | 0.619 | 0.686 | 0.657 | 0.523
HCC-78 | 0.938 | 0.859 | 0.884 | 0.858 | 0.919 | 0.479 | 0.42 | 0.358 | 0.482 | 0.405 | 0.878 | 0.69 | 0.769 | 0.455 | 0.762 | 0.584 | 0.5 | 0.541 | 0.403 | 0.382
